{
  "source": "patent US12077503B2",
  "about": "“Substituted cyclic amides and their use as herbicides” (FMC CORPORATION, priority 2015, dated 2024)",
  "assay_type_in_all_cases": "in vivo",
  "key": {"Kochia (Kochia scoparia)": {"system": "Kochia (Kochia scoparia)", "assay": "Test D preemergence", "conditions": "scale 0 to 100", "outline": "(§1)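 Seeds sown in silt loam soil and sprayed preemergence with test chemicals in a non-phytotoxic solvent mixture containing surfactant. After about 21 d in a controlled growth environment, plants were compared with untreated controls and rated visually from 0 (no effect) to 100 (complete control).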"}, "[1]": {"system": "barley, spring (spring barley, Hordeum vulgare)", "assay": "Test D preemergence", "conditions": "scale 0 to 100", "outline": "as §1"}, "[2]": {"system": "field poppy (Papaver rhoeas)", "assay": "Test D preemergence", "conditions": "scale 0 to 100", "outline": "as §1"}, "[3]": {"system": "pigweed (Amaranthus retroflexus)", "assay": "Test D preemergence", "conditions": "scale 0 to 100", "outline": "as §1"}, "[4]": {"system": "arrowleaf Sida (Sida rhombifolia)", "assay": "Test E preemergence", "conditions": "scale 0 to 100", "text": "(§2) Seeds of plant species selected from corn (Zea mays), soybean (Glycine max), velvetleaf (Abutilon theophrasti), lambsquarters (Chenopodium album), poinsettia, wild (wild poinsettia, Euphorbia heterophylla), pigweed, palmer (palmer pigweed, Amaranthus palmeri), waterhemp (common waterhemp, Amaranthus rudis), surinam grass (Brachiaria decumbens), crabgrass, large (large crabgrass, Digitaria sangumnalis), crabgrass, Brazil (Brazilian crabgrass, Digitaria horizontalis), Panicum, fall (fall Panicum, Panicum dichotomiflorum), foxtail, giant (giant foxtail, Setaria faberii), foxtail, green (green foxtail, Setaria viridis), goosegrass (Eleusine indica), johnsongrass (Sorghum halepense), ragweed (common ragweed, Ambrosia elatior), barnyardgrass (Echinochloa crus-galli), sandbur (southern sandbur, Cenchrus echinatus), arrowleaf Sida (Sida rhombifolia), ryegrass, Italian (Italian ryegrass, Lolium multiflorum), dayflower, VA (Virginia dayflower, Commelina virginica), field bindweed (Convolvulus arvensis), morningglory (Ipomoea coccinea), nightshade (eastern black nightshade, Solanum ptycanthum), Kochia (Kochia scoparia), nutsedge, yellow (yellow nutsedge, Cyperus esculentus), horseweed (Conyza canadensis), and beggarticks (hairy beggarticks, Bidens pilosa), were planted into a silt loam soil and treated preemergence with test chemicals formulated in a non-phytotoxic solvent mixture which included a surfactant.\n(§3) At the same time, plants selected from these crop and weed species were planted in pots containing Sunshine Redi-Earth planting medium comprising spaghnum peat moss, vermiculite, starter nutrients and dolomitic limestone and treated with postemergence applications of a test chemical formulated in the same manner. Plants ranged in height from 2 to 18 cm (1- to 4-leaf stage) for postemergence treatments. Treated plants and controls were maintained in a greenhouse for 14 to 21 d, after which time all species were compared to controls and visually evaluated. Plant response ratings, summarized in Table E, are based on a scale of 0 to 100 where 0 is no effect and 100 is complete control. A dash (-) response means no test result."}, "[5]": {"system": "barnyardgrass (Echinochloa crus-galli)", "assay": "Test E preemergence", "conditions": "scale 0 to 100", "text": "as §2, §3"}, "[6]": {"system": "foxtail, giant (giant foxtail, Setaria faberii)", "assay": "Test E preemergence", "conditions": "scale 0 to 100", "text": "as §2, §3"}, "[7]": {"system": "foxtail, green (green foxtail, Setaria viridis)", "assay": "Test E preemergence", "conditions": "scale 0 to 100", "text": "as §2, §3"}, "[8]": {"system": "johnsongrass (Sorghum halepense)", "assay": "Test E preemergence", "conditions": "scale 0 to 100", "text": "as §2, §3"}, "[9]": {"system": "morningglory (Ipomoea coccinea)", "assay": "Test E preemergence", "conditions": "scale 0 to 100", "text": "as §2, §3"}, "[10]": {"system": "ragweed (common ragweed, Ambrosia elatior)", "assay": "Test E preemergence", "conditions": "scale 0 to 100", "text": "as §2, §3"}, "[11]": {"system": "green foxtail (Setaria viridis)", "assay": "Test A preemergence", "conditions": "0 to 100 scale where 0 is no effect and 100 is complete control", "outline": "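Ratings of 0 (no effect) to 100 (complete control) come from visual comparison with untreated controls roughly 10 d after treatment. Test chemicals, formulated in a non-phytotoxic solvent mixture with surfactant, were applied either as a preemergence directed soil spray on seeded soil or postemergence to one- to two-leaf plants 2 to 10 cm tall.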"}, "[12]": {"conditions": "125 g ai/ha, preemergence, approx. 10 d"}},
  "data": [
    {"smiles": "CN1CC(c2cccc(C(F)(F)F)c2)C(C(=O)Nc2ccccc2S(C)(=O)=O)C1=O", "note": "(stereo not drawn) [Compound 637]", "values": [
      {"measurement": "Plant response rating: Kochia", "setting": "Kochia (Kochia scoparia); 31 g ai/ha", "result": 5},
      {"measurement": "Plant response rating: Kochia", "setting": "Kochia (Kochia scoparia); 62 g ai/ha", "result": 0},
      {"measurement": "Plant response rating: Kochia", "setting": "Kochia (Kochia scoparia); 125 g ai/ha", "result": 35},
      {"measurement": "Plant response rating: Kochia", "setting": "Kochia (Kochia scoparia); 250 g ai/ha", "result": 85},
      {"measurement": "Plant response rating: Barley, Spring", "setting": "[1]; 31 g ai/ha", "result": 0},
      {"measurement": "Plant response rating: Barley, Spring", "setting": "[1]; 62 g ai/ha", "result": 20},
      {"measurement": "Plant response rating: Barley, Spring", "setting": "[1]; 125 g ai/ha", "result": 40},
      {"measurement": "Plant response rating: Barley, Spring", "setting": "[1]; 250 g ai/ha", "result": 70},
      {"measurement": "Plant response rating: Field Poppy", "setting": "[2]; 31 g ai/ha", "result": 100},
      {"measurement": "Plant response rating: Field Poppy", "setting": "[2]; 62 g ai/ha", "result": 100},
      {"measurement": "Plant response rating: Field Poppy", "setting": "[2]; 125 g ai/ha", "result": 100},
      {"measurement": "Plant response rating: Field Poppy", "setting": "[2]; 250 g ai/ha", "result": 100},
      {"measurement": "Plant response rating: Pigweed", "setting": "[3]; 31 g ai/ha", "result": 20},
      {"measurement": "Plant response rating: Pigweed", "setting": "[3]; 62 g ai/ha", "result": 90},
      {"measurement": "Plant response rating: Pigweed", "setting": "[3]; 125 g ai/ha", "result": 100},
      {"measurement": "Plant response rating: Pigweed", "setting": "[3]; 250 g ai/ha", "result": 98},
      {"measurement": "Plant response rating: Arrowleaf Sida", "setting": "[4]; 31 g ai/ha", "result": 0},
      {"measurement": "Plant response rating: Arrowleaf Sida", "setting": "[4]; 62 g ai/ha", "result": 0},
      {"measurement": "Plant response rating: Arrowleaf Sida", "setting": "[4]; 125 g ai/ha", "result": 0},
      {"measurement": "Plant response rating: Arrowleaf Sida", "setting": "[4]; 250 g ai/ha", "result": 0},
      {"measurement": "Plant response rating: Barnyardgrass", "setting": "[5]; 31 g ai/ha", "result": 85},
      {"measurement": "Plant response rating: Barnyardgrass", "setting": "[5]; 62 g ai/ha", "result": 70},
      {"measurement": "Plant response rating: Barnyardgrass", "setting": "[5]; 125 g ai/ha", "result": 80},
      {"measurement": "Plant response rating: Barnyardgrass", "setting": "[5]; 250 g ai/ha", "result": 95},
      {"measurement": "Plant response rating: Foxtail, Giant", "setting": "[6]; 31 g ai/ha", "result": 75},
      {"measurement": "Plant response rating: Foxtail, Giant", "setting": "[6]; 62 g ai/ha", "result": 95},
      {"measurement": "Plant response rating: Foxtail, Giant", "setting": "[6]; 125 g ai/ha", "result": 98},
      {"measurement": "Plant response rating: Foxtail, Giant", "setting": "[6]; 250 g ai/ha", "result": 98},
      {"measurement": "Plant response rating: Foxtail, Green", "setting": "[7]; 31 g ai/ha", "result": 65},
      {"measurement": "Plant response rating: Foxtail, Green", "setting": "[7]; 62 g ai/ha", "result": 75},
      {"measurement": "Plant response rating: Foxtail, Green", "setting": "[7]; 125 g ai/ha", "result": 95},
      {"measurement": "Plant response rating: Foxtail, Green", "setting": "[7]; 250 g ai/ha", "result": 98},
      {"measurement": "Plant response rating: Johnsongrass", "setting": "[8]; 31 g ai/ha", "result": 0},
      {"measurement": "Plant response rating: Johnsongrass", "setting": "[8]; 62 g ai/ha", "result": 0},
      {"measurement": "Plant response rating: Johnsongrass", "setting": "[8]; 125 g ai/ha", "result": 25},
      {"measurement": "Plant response rating: Johnsongrass", "setting": "[8]; 250 g ai/ha", "result": 60},
      {"measurement": "Plant response rating: Morningglory", "setting": "[9]; 31 g ai/ha", "result": 0},
      {"measurement": "Plant response rating: Morningglory", "setting": "[9]; 62 g ai/ha", "result": 0},
      {"measurement": "Plant response rating: Morningglory", "setting": "[9]; 125 g ai/ha", "result": 35},
      {"measurement": "Plant response rating: Morningglory", "setting": "[9]; 250 g ai/ha", "result": 35},
      {"measurement": "Plant response rating: Ragweed", "setting": "[10]; 31 g ai/ha", "result": 0},
      {"measurement": "Plant response rating: Ragweed", "setting": "[10]; 62 g ai/ha", "result": 0},
      {"measurement": "Plant response rating: Ragweed", "setting": "[10]; 125 g ai/ha", "result": 20},
      {"measurement": "Plant response rating: Ragweed", "setting": "[10]; 250 g ai/ha", "result": 85}
    ]},
    {"smiles": "COc1cccc([C@H]2CN(C)C(=O)[C@@H]2C(=O)Nc2cccc(F)c2F)c1", "note": "[Compound 1062]", "values": [
      {"measurement": "Foxtail, Green plant response rating", "setting": "[11]; 31 g ai/ha, Preemergence", "result": 100},
      {"measurement": "Foxtail, Green plant response rating", "setting": "[11]; [12]", "result": 100}
    ]},
    {"smiles": "COc1cccc([C@H]2CN(C)C(=O)[C@@H]2C(=O)Nc2ccc(F)c(F)c2F)c1", "note": "[Compound 1063]", "values": [
      {"measurement": "Foxtail, Green plant response rating", "setting": "[11]; 31 g ai/ha, Preemergence", "result": 100},
      {"measurement": "Foxtail, Green plant response rating", "setting": "[11]; [12]", "result": 100}
    ]}
  ]
}
